# From US20250051391A1, “PEPTIDE INHIBITORS AND METHODS FOR INHIBITING PROTEIN AGGREGATION IN NEURONS AND NEURODEGENERATIVE DISEASES” (THE GOVERNING COUNCIL OF THE UNIVERSITY OF TORONTO, priority 2021, published 2025)
# Ends that are not written are not given here.
# How the values were obtained:
# CHMP2B = target: T1, CHMP2B (Homo sapiens, UniProt Q9UQN3); experiment: a-syn competition fluorescence polarization assay (FITC-Pdpep1.3 and CHMP2B); format: binding; details: 50 nM FITC-Pdpep1.3, 1 μM CHMP2B, a-syn titrated
# T1 construct: against CHMP2B 1-199 truncation and CHMP2B full length; His tag (implied by Ni-NTA purification; pET-DEST42 vector); made in house; host or cells: E. coli Overexpress C41
# HEK293 cells = experiment: LAMP1 and CD63 levels in HEK293 cells co-transfected with A53T a-syn and peptide; format: cell-based, human
# Protocol: Infected or transfected cells were scraped from 6-well dishes and lysed with lysis buffer (50 mM Tris-HCl pH7.4, 1% Nonidet P-40, 150 mM NaCl, 1 mM EDTA, 1× protease inhibitor mixture (Sigma)) for 30 min at 4° C. The insoluble pellet was removed following a 10,000 rpm spin for 5 minutes at 4° C. Lysates were analyzed by SDS-PAGE/immunoblot using 4-20% Mini-PROTEAN Tris-glycine gels (Bio-Rad) transferred to PVDF membranes and blocked in 5% milk containing PBS-Tween-20 (0.1%) for 1 h. PVDF membranes were then incubated with specified primary antibodies followed by incubation with horseradish peroxidase-conjugated secondary antibodies (Santa Cruz Biotechnology) and detected using enhanced chemiluminescence (GE Healthcare).
# After fixation, cells were permeabilized with 0.2% Triton X-100 for 15 min, washed 3 times with PBS and then incubated with blocking solution (1% BSA, 22.52 mg/mL glycine, 0.1% Tween-20 in PBS) for 1 h. Primary antibodies were diluted in blocking solution and incubated overnight at 4° C. Following three washes with PBS, cells were next incubated with fluorescent secondary antibodies diluted in blocking solution for 1 h at room temperature. Following another 3 PBS washes, nuclei were counterstained with DAPI (ThermoFisher) and then coverslips were mounted on slides using fluorescence mounting medium (DAKO) and sealed using clear nail varnish.
# [1] = test system: rat substantia nigra dopaminergic neurons; experiment: AAV A53T a-syn preclinical rat model of PD; format: in vivo
# Protocol: Adult female Sprague-Dawley rats (250-280 g; Envigo) were pair-housed in cages with wood bedding and had access to food and water ad libitum. The animal colony was maintained in a regular 12-h light/dark cycle. All procedures were approved by the University Health Network Animal Care Committee in accordance with guidelines and regulations set by the Canadian Council on Animal Care.
# Animals were secured in a stereotactic frame under isoflurane/oxygen anaesthesia and ketoprofen (5 mg/kg) analgesia. The surgical site was shaved and sterilized with iodine/betadine prior to making a 2 cm incision along the midline. The scalp was exposed and a unilateral injection targeting the SN was performed at coordinates AP−5.2 mm, ML−2 mm and DV−7.4 mm with respect to the bregma as a point of reference. For each animal, a total volume of 2 μl of virus was injected at a rate of 0.5 μl/min using a microinjection pump and 10 μl Hamilton syringe with a 26-gauge needle. For A53T groups, 1 μl (low dose) or 1.34 μl (high dose) of AAV1/2-A53T a-syn (5.1×10^12 genomic particles/ml), 0.14 μl of AAV1/2-Pdpep1.3-GFP or scramble1.3-GFP (5.1×10^12 genomic particles/ml) and 0.86 μl or 0.52 μl of sterile PBS was injected; for EV groups, 1 μl (low dose) or 1.34 μl (high dose) of AAV1/2-EV (5.1×10^12 genomic particles/ml) replaced AAV1/2-A53T. For V1S+SV2 groups, 0.58 μl of AAV1/2-V1S (1.1×10^12 genomic particles/ml), 0.58 μl of AAV1/2-SV2 (1.1×10^12 genomic particles/ml), 0.14 μl of AAV1/2-Pdpep1.3-RFP or scramble1.3-RFP (5.1×10^12 genomic particles/ml) and 0.7 μl of sterile PBS was injected; for the YFP groups, 1.16 μl of AAV1/2-YFP (1.1×10^12 genomic particles/ml), 0.14 μl of AAV1/2-Pdpep1.3-RFP or scramble1.3-RFP (5.1×10^12 genomic particles/ml) and 0.7 μl of sterile PBS was injected. At the end of virus injection, the needle remained in place for 5 minutes before gradual removal.
# Spontaneous forepaw use was evaluated using the cylinder test 1 day prior to stereotactic AAV injection, at 21 days post-injection and at 41 days post-injection. Following overnight food restriction, individual rats with right paws marked black were placed into a glass cylinder in front of two mirrors and videos recorded. An observer blinded to treatment conditions later scored the videos by recording whether animals used their left or right forepaw to touch the inner glass surface upon rearing. A total of 5 min of video recording was scored and a minimum of 10 total touches was required for data inclusion (61).
# Animals were uthanized by transcardial perfusion with heparinised saline under isoflurane/oxygen anaesthesia. Brains were then removed and the ventral part, including the ventral striatum, was snap frozen in liquid dry ice-cooled isopentane. A single 1 mm thick section of the ventral striatum was immediately cut, using a matrix, for high-performance liquid chromatography (HPLC) analysis of biogenic amines. The dorsal part, including the dorsal striatum, STN, and the SN, was immersion-fixed in 4% paraformaldehyde in 0.1M PBS for 2 days and cryo-protected in 30% sucrose in 0.1M PBS solution for another 3 days until the brains sank. For immunofluorescent staining, 40 μm coronal cryosections were then prepared using a sliding microtome (Leica Microsystems Inc.) and 6 series of sections were stored in cryoprotectant (30% glycerol, 30% ethylene glycol, 40% PBS) at −20° C. until use.
# Immunofluorescence staining for a-syn, tyrosine hydroxylase and LAMP1 was performed by washing free-floating sections with PBS-T (0.2% Triton X-100) three times for 10 min each at room temperature. Sections were then incubated in blocking solution (1% BSA, 10% normal goat serum in PBS-T) for 1 h. After blocking, sections were incubated with primary antibodies in antibody solution (2% normal goat serum in PBS-T) overnight at RT. Sections were then washed in PBS and incubated with secondary antibodies diluted in antibody solution for 1 h in the dark at room temperature. […]
# [2] = higher titer AAV-A53T a-syn, vs Scramble1.3 condition
# T1 sequence (Q9UQN3 whole entry, the tested form may be a part): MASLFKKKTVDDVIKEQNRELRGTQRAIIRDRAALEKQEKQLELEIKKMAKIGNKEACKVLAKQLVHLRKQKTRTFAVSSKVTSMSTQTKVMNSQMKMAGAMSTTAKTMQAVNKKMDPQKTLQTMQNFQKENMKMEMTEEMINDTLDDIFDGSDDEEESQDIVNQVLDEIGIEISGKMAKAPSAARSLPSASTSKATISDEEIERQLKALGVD
sequence,measurement,setting,value
DEEIERQLKALG [PDpep1.3],competition with a-syn for binding to CHMP2B,CHMP2B,competed for binding to CHMP2B
same,CD63 levels (MVB marker),HEK293 cells; HEK293 cells expressing A53T a-syn,return of CD63
same,LAMP1 levels,HEK293 cells; HEK293 cells overexpressing A53T a-syn,restored
same,forelimb asymmetry in the cylinder test,"[1]; higher titer AAV-A53T a-syn, 6 weeks",comparable to controls
same,dopaminergic neurodegeneration in the SN (TH+ cell counts),"[1]; higher titer AAV-A53T a-syn, 6 weeks post-injection",mitigated
same,striatal levels of DOPAC,[1]; [2],restored
same,striatal levels of HVA,[1]; [2],restored
same,striatal levels of dopamine,[1]; [2],restored
same,LAMP1-positive puncta in the SN,[1]; lower titer AAV-A53T a-syn,restored
same,total a-syn positive area in the SN,"[1]; lower titer AAV-A53T a-syn, vs Scramble1.3",significant reduction
same,a-syn mean fluorescence intensity in cells positive for TH and GFP,"[1]; rats, low titer AAV-A53T a-syn, AAV-expressed GFP peptide",0.335±0.025 RFU
